Measured values as given in patent publication US20220000816A1, “COMPOSITION AND METHOD OF INHIBITING ACTIVITY OF MINERALOCORTICOID RECEPTOR BY APPLYING IT TO THE SKIN” (AMOREPACIFIC CORPORATION, priority 2018, published 2022).

Tested on: mineralocorticoid receptor
Assay: MMTV-luciferase reporter assay of mineralocorticoid receptor activity in CV-1 cells stimulated with dexamethasone
Assay type: cell-based
Conditions: 10 μg/ml compound, after 2 hours dexamethasone (1 nM), cultivated 24 hours, normalized to Renilla luciferase, FIG. 2
Protocol: RNA was separated from a CV-1 cell and PCR was performed using reverse transcriptase, so gene expressions of a glucocorticoid receptor (GR) and a mineralocorticoid receptor (MR) were confirmed, and the results are shown in FIG. 1.
The CV-1 cell was cultivated in a 24-well flat incubator. After 24 hours, the incubating medium was replaced with a 10% charcoal dextran-treated FBS-DMEM, and then after 4 hours, mixed DNA of a MMTV-luciferase reporter plasmid and an internal control group of a pRL-SV-40 plasmid was transfected using TransFast reagent (Promega). After 24 hours, it was treated with 10 μg/ml of the compound (Ramidus AB) represented by Chemical Formula 1-1, and after 2 hours, was treated with dexamethasone (1 nM), and then cultivated for 24 hours. The luciferase activity in the cell lysate was measured using a Dual-Luciferase Reporter Assay System (Promega), and the transfection efficiency was normalized by revising Renilla luciferase activity to measure a relative luciferase activity, and the results are shown in FIG. 2.

CC(C)c1ccc2c(c1)CC[C@H]1[C@@H](C)C(C(=O)O)CC[C@]21C (stereo partly shown) [Chemical Formula 1-1]
relative luciferase activity (activity of the mineralocorticoid receptor by dexamethasone): deteriorated activity of the mineralocorticoid receptor
